Where a name gives a salt, the structure may show the parent alone.
Tests used:
[1] = test system: 18C-18D duplex (RNase H substrate of HIV-1 RT); test: RT-induced RNase H cleavage of the 18C-18D duplex (gel assay); format: biochemical; conditions: for hierarchy of inhibition of RT-induced cleavage: 18C-18D duplex, aminoglycosides 2.0 mM, FIG. 2b, 2c
Excerpt: The second model oligonucleotide was a 18mer chimeric duplex (18C-18D). 18C-18D mimics a RNase H substrate during plus-strand strong-stop synthesis (FIG. 2a), which occurs following minus-strand DNA synthesis. Fedoroff, O. Y., et. al., B. R. Structural variation among retroviral primer-DNA junctions: Solution structure of the HIV-1 (−)-strand Okazaki fragment r(gcca)d(CTGC)-d(GCAGTGGC), Biochemistry 35,11070-11080 (1996). For the 18C-18D duplex, RT cleaves the RNA portion of the chimeric strand (18C) opposite the DNA strand (18D) at only a single site (FIGS. 2a, b), in marked contrast to the three cleavage sites observed in the 18C-18Rduplex. This unique cleavage site lies between base positions +1 and +2 (counting from the RNA-DNA junction in the 5′ direction on the cleaved chimeric strand). Furfine, E. S. & Reardon, J. E., Human immunodeficiency virus reverse transcriptase ribonuclease H: Specificity of tRNA(Lys3)-primer excision, Biochemistry 30, 7041-7046 (1991); Smith, J. S. & Roth, M. J. Specificity of human immunodeficiency virus-1 reverse transcriptase-associated ribonuclease H in removal of the minus-strand primer tRNA(Lys3), J. Biol. Chem. 267, 15071-15079 (1992). […] As noted above for the 18C-18R duplex, this hierarchy of cleavage inhibition correlates with the relative binding affinities of the three ligands for the 18C-18D duplex.
(§1) Recombinant HIV-1 RT p66 was isolated from Escherichia coli JM 109. Pandey, V. N. et al, Role of methionine 184 of human immunodeficiency virus type-1 reverse transcriptase in the polymerase function and fidelity of DNA synthesis, Biochemistry 35, 2168-2179 (1996). The 18C and 18R oligonucleotides were purchased from Dharmacon Research, Inc. (Lafayette, Colo.). The 18D oligonucleotide was obtained from Integrated DNA Technologies, Inc. (Coralville, Iowa). Neomycin trisulfate trihydrate, the free base of tobramycin, paromomycin sulfate, and kanamycin B sulfate were obtained from Fluka, while kanamycin A monosulfate and ribostamycin sulfate dihydrate were obtained from Sigma.
(§2) The RNase H activity of RT was assayed in a 10 μl reaction mixture containing 110 mM PIPES (pH 6.0) and 5 mM MgCl2. Ten pmol of either 18C or 18R were ^32P-labeled at the 5′ end using T4 polynucleotide kinase. For the cleavage experiments, different aminoglycosides were mixed with 0.5 μM of target duplex. A small amount of RT, 0.1 μg, was then added to initiate the cleavage reaction. After incubation at 37° C. for 30 min, the reaction was stopped by addition of 3 M urea containing a mixture of bromophenol blue and xylene cyanol. Denaturation of the 18C-18R duplex required the addition of 5 M urea as well as heating at 95° C. for 5 min prior to gel loading. The cleavage products were resolved in a 10% polyacrylamide gel containing 8 M urea. The gels were subsequently analyzed using a phosphoimager (Molecular Dynamics, Inc.).
To determine the nature of the aminoglycoside-induced inhibition of RT-catalyzed RNase H cleavage, the impact of RT concentration on neomycin-induced inhibition was examined. […] In the presence of 1 mM neomycin, increasing the concentrations of RT overcomes the RNase H inhibitory effect of the drug.

[2] = test system: 18C-18R duplex (RNase H substrate of HIV-1 RT); test: RT-induced RNase H cleavage of the 18C-18R duplex (gel assay); format: biochemical; conditions: for hierarchy of the extent of inhibition of RT-induced cleavage: 18C-18R duplex, aminoglycosides 312.5 μM, FIG. 1b, 1d; for inhibition of RT-induced cleavage at the primary site: FIG. 1c
Excerpt: The first model oligonucleotide was a 18mer chimeric duplex (18C-18R). 18C-18R mimics a RNase H substrate during minus-strand strong-stop synthesis. (FIG. 1a). Mueller, U. et al. Crystal structure of an eight-base pair duplex containing the 3′-DNA RNA-5′ junction formed during initiation of minus-strand synthesis of HIV replication, Biochemistry 37,12005-12011 (1998). […] Note that RT cleaves the RNA strand (18R) opposite the chimeric RNA-DNA strand (18C) at three sites (FIGS. 1a, b). The primary cleavage site lies between base positions +1 and +2 (counting from the RNA-DNA junction in the 5′ direction on the cleaved RNA strand). Two other minor cleavage sites lie between positions +3 and +4 and between positions −1 and +1, with the former site being cleaved to a greater extent than the latter site. Götte, M. et al., HIV-1 Reverse transcriptase-associated RNase H cleaves RNA/RNA in arrested complexes: Implications for the mechanism by which RNase H discriminates between RNA/RNA and RNA/DNA, EMBO J. 14, 833-841 (1995).
as §1
as §2, with “10” for “110”

Neomycin trisulfate trihydrate
nature of inhibition of RNase H activity of RT ([1]; 1 mM neomycin, increasing RT 0.1-2.7 μg, FIG. 2d): competitive
hierarchy of inhibition of RT-induced cleavage [1]: neomycin>paromomycin>ribostamycin
neomycin required for 50% inhibition of RT-induced cleavage, 18C-18D relative to 18C-18R ([1]; comparison of FIGS. 1c and 2c): approximately 420 times
hierarchy of the extent of inhibition of RT-induced cleavage [2]: neomycin>paromomycin>tobramycin>kanamycin B>ribostamycin>>kanamycin A
inhibition of RT-induced cleavage at the primary site ([2]; neomycin to binding site ratio of 1 (stoichiometric concentration)): 80%
inhibition of RT-induced cleavage at the primary site ([2]; neomycin to binding site ratio of 5): total inhibition

NC[C@@H]1O[C@H](O[C@H]2[C@@H](O)[C@H](O[C@@H]3[C@@H](O)[C@H](N)C[C@H](N)[C@H]3O[C@H]3O[C@H](CO)[C@@H](O)[C@H](O)[C@H]3N)O[C@@H]2CO)[C@H](N)[C@@H](O)[C@@H]1O [paromomycin, paromomycin sulfate]
hierarchy of inhibition of RT-induced cleavage [1]: neomycin>paromomycin>ribostamycin
hierarchy of the extent of inhibition of RT-induced cleavage [2]: neomycin>paromomycin>tobramycin>kanamycin B>ribostamycin>>kanamycin A

Source: US20030069194A1, “Inhibition of viral replication by targeting RNA-DNA complexes” (priority 2001, published 2003)
